According to paper PMC4982760, “Small-molecule inhibitors identify the RAD52-ssDNA interaction as critical for recovery from replication stress and for survival of BRCA2 deficient cells” (eLife, 2016):

Columns and labels:
[1] = molecular target: T1, RAD52 (Homo sapiens, UniProt P43351); assay: WaterLOGSY NMR binding to RAD52; settings: 20-40 μM compound, 3.3 μM RAD52
T1 construct: made in house
T1 sequence (P43351 1-418): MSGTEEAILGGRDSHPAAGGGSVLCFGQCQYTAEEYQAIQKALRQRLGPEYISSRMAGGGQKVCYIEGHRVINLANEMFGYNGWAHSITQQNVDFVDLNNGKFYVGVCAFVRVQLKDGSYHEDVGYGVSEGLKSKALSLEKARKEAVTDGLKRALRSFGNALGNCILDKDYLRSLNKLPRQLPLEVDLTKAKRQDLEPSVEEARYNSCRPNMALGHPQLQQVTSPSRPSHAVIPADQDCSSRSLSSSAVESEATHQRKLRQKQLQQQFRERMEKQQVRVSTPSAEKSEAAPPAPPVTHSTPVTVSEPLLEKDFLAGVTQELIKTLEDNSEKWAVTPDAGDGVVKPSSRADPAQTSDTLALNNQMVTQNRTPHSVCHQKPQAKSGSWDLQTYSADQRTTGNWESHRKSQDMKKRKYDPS
Text: (§1) To confirm that the selected compounds bind RAD52, we employed water-ligand observation with gradient spectroscopy (WaterLOGSY), an NMR technique, which is based on transfer of magnetization from bulk water to the protein-bound compound of interest ([Dalvit et al., 2001], [2000]). In WaterLOGSY spectrum, if a compound binds to a protein, the compound will receive negative nuclear Overhauser effects (NOEs) due to the slow tumbling of the protein-compound complex, leading to a positive WaterLOGSY peak. […] Similarly, the binding of ‘6’to RAD52 is evident from the positive WaterLOGSY peaks that are clearly detected for this compound (Figure 3a).
(§2) Compound binding to RAD52 and RPA proteins was analyzed using water-ligand observation with gradient spectroscopy (WaterLOGSY) NMR experiments ([Dalvit et al., 2001], [2000]). The WaterLOGSY spectra of compounds in the presence of RAD52 or RPA were acquired using a water NOE mixing time of 1 s and a T2 relaxation filter of 50 ms just before data acquisition to suppress the broad signals derived from protein. The protein buffer used in the experiments contains 10 mM Tris-d11, 75 mM KCl, 0.25 mM EDTA, pH 7.5, and 10% D20. All NMR data were acquired on a Bruker Avance II 800 MHz NMR spectrometer equipped with a sensitive cryoprobe and recorded at 25°C. The ^1H chemical shifts were referenced to 2,2-dimethyl-2-silapentane-5-sulfonate (DSS). NMR spectra were processed using NMR Pipe ([Delaglio et al., 1995]) and analysed using NMR View ([Johnson and Blevins, 1994]).

[2] = molecular target: T2, RPA-ssDNA interaction (Homo sapiens, UniProt P15927+P27694+P35244); assay: FRET titration of the RPA-Cy3-dT30-Cy5 complex; type: binding; settings: range of tested concentrations
T2 construct: made in house
T2 sequence (P27694 whole entry): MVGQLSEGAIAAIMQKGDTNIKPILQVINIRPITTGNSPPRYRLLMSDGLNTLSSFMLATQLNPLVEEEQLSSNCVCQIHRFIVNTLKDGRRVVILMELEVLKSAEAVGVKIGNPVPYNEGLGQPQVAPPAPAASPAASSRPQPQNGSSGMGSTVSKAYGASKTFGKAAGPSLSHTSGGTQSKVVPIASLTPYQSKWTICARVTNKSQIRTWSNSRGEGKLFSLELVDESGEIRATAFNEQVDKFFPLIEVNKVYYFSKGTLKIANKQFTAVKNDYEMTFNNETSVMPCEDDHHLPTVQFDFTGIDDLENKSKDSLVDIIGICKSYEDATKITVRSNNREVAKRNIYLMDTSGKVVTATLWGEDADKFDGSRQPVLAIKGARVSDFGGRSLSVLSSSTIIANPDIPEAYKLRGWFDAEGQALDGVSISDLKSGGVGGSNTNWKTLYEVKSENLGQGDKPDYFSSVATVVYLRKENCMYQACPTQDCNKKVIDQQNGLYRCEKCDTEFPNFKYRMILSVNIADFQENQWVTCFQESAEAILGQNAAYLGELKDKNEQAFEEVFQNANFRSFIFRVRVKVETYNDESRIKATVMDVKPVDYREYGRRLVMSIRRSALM
T2 sequence (P15927 whole entry): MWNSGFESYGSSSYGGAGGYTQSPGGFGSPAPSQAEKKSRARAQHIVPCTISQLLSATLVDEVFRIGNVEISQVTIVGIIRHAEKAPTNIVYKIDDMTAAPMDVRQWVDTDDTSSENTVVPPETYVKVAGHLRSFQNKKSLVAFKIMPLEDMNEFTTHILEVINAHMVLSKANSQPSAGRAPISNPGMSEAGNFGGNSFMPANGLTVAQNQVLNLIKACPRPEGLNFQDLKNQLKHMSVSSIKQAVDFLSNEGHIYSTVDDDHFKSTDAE
T2 sequence (P35244 whole entry): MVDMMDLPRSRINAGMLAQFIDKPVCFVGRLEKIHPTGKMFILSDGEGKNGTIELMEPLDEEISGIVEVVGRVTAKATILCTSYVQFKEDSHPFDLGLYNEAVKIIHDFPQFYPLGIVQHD
Text: In the cell, ssDNA is typically found in complex with Replication protein A (RPA), the major eukaryotic ssDNA-binding protein essential for DNA replication, repair and recombination ([Wold, 1997]; [Oakley and Patrick, 2010]; [Chen and Wold, 2014]). The RPA-ssDNA complex is a physiologically relevant substrate for the RAD52-mediated strand annealing. […] RPA binds ssDNA with high affinity and extends the ssDNA to its contour length. In our assays such an extension manifests as a distinct FRET state of ~0.3, which is readily distinguished from a FRET state of ~0.48 of free Cy3-dT30-Cy5 ssDNA, as well as ~0.63 FRET of the stoichiometric ssDNA-RPA-RAD52 complex (see Figure 2—figure supplement 1 and ([Grimme and Spies, 2011]) for details). […] Both, however, inhibited the RAD52 binding to and wrapping of RPA-coated ssDNA with IC50 values identical to those determined without RPA (Figure 2e and Figure 3e).
(§3) In all experiments, the FRET values for each data point were corrected for the effects of the compounds on the respective substrate in the absence of RAD52.

[3] = molecular target: T3, RAD52-ssDNA interaction (Homo sapiens, UniProt P43351); assay: FRET-based ssDNA binding and wrapping assay (RAD52-Cy3-dT30-Cy5 complex); settings: 1 nM Cy3-dT30-Cy5, 8 nM RAD52, 25°C; read-out: IC50 (DNA binding), ssDNA
T3 construct: made in house
T3 sequence (P43351 1-418): T1 sequence (P43351 1-418)
Experimental: We titrated increasing amounts of each compound into a cuvette containing preformed stoichiometric RAD52-Cy3-dT30-Cy5 complexes (1 nM Cy3-dT30-Cy5 and 8 nM RAD52). […] At each concentration of the compound, the FRET signal was adjusted for the change in Cy3 and Cy5 fluorescence in the presence of the compound, but in the absence of protein.
FRET-based ssDNA binding, dsDNA binding, and annealing assays were carried out as previously described ([Grimme et al., 2010]; [Grimme and Spies, 2011]) using Cary Eclipse spectrofluorimeter (Varian) at 25°C in buffer containing 30 mM Tris-Acetate pH7.5, 1 mM DTT, and 0.1 mg/mL BSA. Cy3 dye was excited at 530 nm and its emission was monitored at 565 nm. Emission of Cy5 acceptor fluorophore excited through the energy transfer from Cy3 donor is monitored at 660 nm simultaneously with emission of Cy3 dye. Both the excitation and the emission slit widths were set to 10 nm.
All experiments were performed in triplicates, and the data are shown as averages and standard deviations for three independent measurements. To remove possible experimental artifacts associated with chromogenic or fluorogenic compounds, as well as with the compounds that may quench or enhance Cy3 or Cy5 fluorescence, we also performed control titrations whereby we titrated each compound into 1 nM Cy3-dT30-Cy5 in the absence of RAD52. For each compound concentration we subtracted the difference in the FRET signal in the presence and absence of the compound from the respective FRET signal in the presence of RAD52. The FRET signal corrected for the compound fluorescence was calculated using the equation: FRETapp=4.2∗ICy5/4.2∗ICy5+ 1.7∗ICy3
as previously described ([Grimme et al., 2010]; [Grimme and Spies, 2011]) and plotted as a function of compound concentration and fitted to the following inhibition model” FRET([small molecule])=FRET0−FRETmin/1+10^(LogIC50−Log([small molecule])∗HillSlope),
where FRET0 is the initial FRET value of the RAD52-ssDNA complex in the absence of the compound and FRETmin is the FRET value at complete inhibition. FRET values were calculated as an average of three or more independent annealing reactions plotted against the concentration of the compound. Inhibition of the RAD52-dsDNA interaction was assayed in a similar experiments, except the stoichiometric complexes containing 1 nM molecules of Cy3-Oligo28-Cy5 duplex DNA and 10 nM RAD52.

[4] = molecular target: T4, RAD52-RPA-Cy3-dT30-Cy5 complex (Homo sapiens, UniProt P43351); assay: FRET-based RAD52 binding/wrapping of RPA-coated ssDNA
T4 construct: made in house
T4 sequence (P27694 whole entry partner, one chain of several): as the sequence (P27694 whole entry) above
T4 sequence (P15927 whole entry partner, one chain of several): as the sequence (P15927 whole entry) above
T4 sequence (P35244 whole entry partner, one chain of several): as the sequence (P35244 whole entry) above
Text: The RPA-ssDNA complex is a physiologically relevant substrate for the RAD52-mediated strand annealing. […] RPA binds ssDNA with high affinity and extends the ssDNA to its contour length.
as §3

[5] = molecular target: T5, RAD52-dsDNA interaction (Homo sapiens, UniProt P43351); assay: FRET-based RAD52-dsDNA binding assay; settings: 1 nM dsDNA, 10 nM RAD52
T5 construct: made in house
T5 sequence (P43351 1-418): T1 sequence (P43351 1-418)

[6] = molecular target: T6, RPA (Homo sapiens, UniProt P15927+P27694+P35244); assay: WaterLOGSY NMR binding to RPA; settings: 20-40 μM compound, 3.3 μM RPA
T6 construct: made in house
T6 sequence (P27694 whole entry): as the sequence (P27694 whole entry) above
T6 sequence (P15927 whole entry): as the sequence (P15927 whole entry) above
T6 sequence (P35244 whole entry): as the sequence (P35244 whole entry) above
Text: as §1, §2

O=C(O[C@@H]1O[C@@H]2COC(=O)c3cc(O)c(O)c(O)c3-c3c(cc(O)c(O)c3O)C(=O)O[C@H]([C@H]1O)[C@@H]2O)c1cc(O)c(O)c(O)c1 [NP-004255, corilagin]
binding to RAD52 (WaterLOGSY) [1]: physically interacts with RAD52 | effect on the RPA-ssDNA interaction [2]: did not affect the RPA-ssDNA complex | IC50 [3]: 1500 ± 200 nM | IC50 [4]: 500 ± 100 nM | effect on the RAD52-dsDNA interaction [5]: had no effect on the RAD52-dsDNA interaction | binding to RPA (WaterLOGSY) [6]: also bound RPA
